Series [1] deals with Vascular Endothelial Growth Factor (VEGF) production by human melanoma cell line RPMI-7951. As to the kind of experiment: VEGF ELISA, RPMI-7951. The conditions noted are these: RPMI-7951; for VEGF ELISA: DMSO control 3713.
Series [2] has as its system Sixty human tumor cell lines. The conditions noted are these: for GI50: read-out: Median Growth Inhibitory Concentration (GI50), Mean, Mean over the NCI cell lines.
The test system of series [3] is SNB-75. Kind of series: cells. The conditions noted are these: Homo sapiens, SNB-75, 48 h.
Series [4] concerns UACC-257. Kind of series: cells. The conditions noted are these: Homo sapiens, UACC-257, 48 h.
The test system of series [5] is LOX IMVI. Kind of series: cells. Particulars: Homo sapiens, 48 h.
Series [6] concerns NCI-H522. As to the kind of experiment: cells. The conditions noted are these: Homo sapiens, NCI-H522, 48 h.
In series [7] the test system is RXF 393. Kind of series: cells. Particulars: Homo sapiens, RXF 393, 48 h.
The subject of series [8] is CAKI-1. Kind of series: cells. Particulars: Homo sapiens, CAKI-1, 48 h.
For series [9], the system named is T-47D. Kind of series: cells. The conditions noted are these: Homo sapiens, T47D, 48 h.
Series [10] concerns UO-31. Kind of series: cells. Particulars: Homo sapiens, UO-31, 48 h.
The test system of series [11] is 786-0. Kind of series: cells. The conditions noted are these: Homo sapiens, 786-0, 48 h.
Series [12] relates to NCI-H460. As to the kind of experiment: cells. Particulars: Homo sapiens, NCI-H460, 48 h.
Series [13] concerns MCF-7. As to the kind of experiment: cells. The conditions noted are these: Homo sapiens, MCF7, 48 h.
The test system of series [14] is MDA-MB-231. Kind of series: cells. The conditions noted are these: Homo sapiens, MDA-MB-231, 48 h.
Series [15] deals with HCC-2998. Kind of series: cells. The conditions noted are these: Homo sapiens, HCC 2998, 48 h.
In series [16] the test system is HCT-15. Kind of series: cells. The conditions noted are these: Homo sapiens, HCT-15, 48 h.
Series [17] concerns SN12C. Kind of series: cells. Particulars: Homo sapiens, 48 h.
Series [18] has as its system HOP-62. Kind of series: cells. The conditions noted are these: Homo sapiens, HOP-62, 48 h.
Series [19] relates to SK-MEL-28. As to the kind of experiment: cells. The conditions noted are these: Homo sapiens, SK-MEL-28, 48 h.
The subject of series [20] is SNB-19. As to the kind of experiment: cells. Particulars: Homo sapiens, SNB-19, 48 h.
In series [21] the test system is CCRF-CEM. Kind of series: cells. The conditions noted are these: Homo sapiens, 48 h.
The subject of series [22] is ACHN. Kind of series: cells. The conditions noted are these: Homo sapiens, 48 h.
Series [23] relates to KM12. Kind of series: cells. Particulars: Homo sapiens, KM12, 48 h.
Series [24] deals with MOLT-4. Kind of series: cells. The conditions noted are these: Homo sapiens, MOLT-4, 48 h.
The test system of series [25] is SF-268. Kind of series: cells. The conditions noted are these: Homo sapiens, SF-268, 48 h.
Series [26] deals with NCI/ADR-RES. As to the kind of experiment: cells. Particulars: Homo sapiens, 48 h.
The test system of series [27] is PC-3. As to the kind of experiment: cells. The conditions noted are these: Homo sapiens, PC-3, 48 h.
Series [28] relates to NCI-H226. As to the kind of experiment: cells. Particulars: Homo sapiens, NCI-H226, 48 h.
The test system of series [29] is OVCAR-3. Kind of series: cells. Particulars: Homo sapiens, OVCAR-3, 48 h.
[30] abbreviates: 5 μM, DMSO control 4197 (EF-25: 1045).
The mark [31] stands for this setting: read-out: Median Growth Inhibitory Concentration (GI50).
The mark [32] stands for this setting: read-out: Median Lethal Concentration (LC50).
Where [33] appears, read: NCI Anti-Tumor Screen, several cell types.

Marks after values point to notes of the source that are not given here.

Data on five compounds can be found in patent US7371766B2, “Curcumin analogs with anti-tumor and anti-angiogenic properties” (Emory University, priority 1999, dated 2008).

As for “3,5-Bis(2-hydroxybenzylidene)-sulfone [EF11]”, in [1] (20 μM, DMSO = 100), the VEGF was determined as 51%. In addition, in series [2] (48 hours), the GI50 was 34.7 µM.
On to `N.N.[Cl][Pt][Cl]` [Cisplatin, reference compound], for which, in series [2] (48 hours), the GI50 amounted to 0.7 µM.
Take `C(=C\c1ccccc1)/S/C=C/c1ccccc1` [EF15]: the VEGF in series [1] (5 μM, DMSO = 100) is 28%; in [1] (setting [30]), 1187 pg/mL; in [1] (20 μM, DMSO = 100), 22%; in series [1] (20 μM, DMSO control 4197), 938 pg/mL. For the same compound, the “VEGF ELISA” value in series [1] (5 μM) stood at 2361 pg/ml/well; in series [1] (20 μM), 894 pg/ml/well. The GI50 in series [2] (48 hours) was 75.9 µM.
Turning to `OC(CCc1ccc(F)cc1F)CCc1ccc(F)cc1F` [EF19, 1,5-Bis(2,4-difluorophenyl)-pentan-3-ol], the GI50 in series [3] (setting [31]) was 19 µM; in series [4] (setting [31]) it was 17.9 µM; in [5] (setting [31]) it was 20 µM; in series [6] (setting [31]), 18.2 µM; in series [7] (setting [31]), 18.8 µM; in series [8] (setting [31]) it was 21.8 µM. In addition, the GI50 in series [9] (setting [31]) was determined as 15.5 µM; in series [10] (setting [31]) it was 18.2 µM; in series [11] (setting [31]), 17 µM; in series [12] (setting [31]) it was 17.9 µM; in series [13] (setting [31]), 17.7 µM; in [14] (setting [31]) it was 22.4 µM. The GI50 in [15] (setting [31]) is 17.7 µM; in series [16] (setting [31]), 24.8 µM; in [17] (setting [31]), 17.4 µM; in [18] (setting [31]), 18 µM; in series [19] (setting [31]) it was 17.1 µM; in [20] (setting [31]) it was 16.1 µM. Also, the GI50 in series [21] (setting [31]) was determined as 18.2 µM; in series [22] (setting [31]), 17.8 µM; in series [23] (setting [31]), 17.6 µM; in [24] (setting [31]) it was 2.6 µM; in [25] (setting [31]) it was 21.5 µM; in series [26] (setting [31]) it was 25.3 µM. Further, the figures for the GI50 in [27] (setting [31]), in [28] (setting [31]) and in [29] (setting [31]) were 17.5 µM, 19.9 µM and 17.9 µM, respectively. Moreover, the CC50 in series [3] (setting [32]) was 57.5 µM; in series [4] (setting [32]), 56.3 µM; in [5] (setting [32]), 74.4 µM; in series [6] (setting [32]) it was 75.4 µM; in [7] (setting [32]), 58.4 µM; in series [8] (setting [32]), 67.8 µM. Further, the CC50 in series [9] (setting [32]) was 68.9 µM; in [10] (setting [32]), 56.6 µM; in series [11] (setting [32]), 55.4 µM; in series [12] (setting [32]) it was 57.5 µM; in series [13] (setting [32]) it was 57.1 µM; in series [14] (setting [32]), 66.3 µM. The CC50 in series [15] (setting [32]) was 56.1 µM; in series [16] (setting [32]), > 100 µM; in series [17] (setting [32]) it was 55.9 µM; in series [18] (setting [32]) it was 58.7 µM; in [19] (setting [32]), 55.6 µM; in series [20] (setting [32]) it was 57.3 µM. In addition, the CC50 in series [21] (setting [32]) is 72.3 µM; in series [22] (setting [32]), 56.3 µM; in series [23] (setting [32]), 56.1 µM; in [24] (setting [32]), 75.6 µM; in [25] (setting [32]) it was 85.3 µM; in series [26] (setting [32]) it was > 100 µM. Further, the CC50 stood at 56.7 µM in series [27] (setting [32]), 75.7 µM in series [28] (setting [32]) and 59.3 µM in [29] (setting [32]).
`O=C1C(=Cc2ccccc2O)COCC1=Cc1ccccc1O` [EF25, 3,5-Bis(2-hyrdoxybenzylidene)tetrahydro4-H-pyran4-one]: the VEGF in series [1] (5 μM, DMSO = 100) turned out to be 21%. Also, the VEGF in [1] (setting [30]) was 216* pg/ml. In [2] (setting [33]), the “GI50 compared with CISPLATIN, in words” value was “lower GI50 than the chemotherapeutic agent CISPLATIN for several cell types” and the “LC50 compared with CISPLATIN, in words” value is listed as “lower LC50 than the chemotherapeutic agent CISPLATIN for several cell types”. Moreover, the GI50 in series [2] (48 hours) was found to be 1.1 µM. Further, in [2] (read-out: Median Lethal Concentration (LC50), Mean, Mean over the cell line panel, 48 hours, SRB assay), the CC50 stood at 24.2 µM.
